Measurements reported in PubChem BioAssay (NCI).
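Tested at 5 concentrations; 48 h exposure; 96-well plates; endpoints linearly interpolated, else capped at highest concentration. The concentration for full growth arrest is given as TGI.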

Legend:
Assay in all cases: inhibition of tumour cell growth, NCI panel, 48 h
SW-620 colon = system: SW-620 colon
RXF 393 renal = system: RXF 393 renal
CCRF-CEM leukemia = system: CCRF-CEM leukemia
HCC-2998 colon = system: HCC-2998 colon
MOLT-4 leukemia = system: MOLT-4 leukemia
KM12 colon = system: KM12 colon
SNB-19 CNS = system: SNB-19 CNS
EKVX NSCLC = system: EKVX NSCLC
SF-295 CNS = system: SF-295 CNS
SK-MEL-5 melanoma = system: SK-MEL-5 melanoma
SF-539 CNS = system: SF-539 CNS
A549 NSCLC = system: A549 NSCLC
UACC-62 melanoma = system: UACC-62 melanoma
HCT-15 colon = system: HCT-15 colon
DU-145 prostate = system: DU-145 prostate
MCF7 breast = system: MCF7 breast
MDA-MB-435 = system: MDA-MB-435

Row | SMILES | TGI (SW-620 colon) [µM] | TGI (RXF 393 renal) [µM] | TGI (CCRF-CEM leukemia) [µM] | TGI (HCC-2998 colon) [µM] | TGI (MOLT-4 leukemia) [µM] | TGI (KM12 colon) [µM] | TGI (SNB-19 CNS) [µM] | TGI (EKVX NSCLC) [µM] | TGI (SF-295 CNS) [µM] | TGI (SK-MEL-5 melanoma) [µM] | TGI (SF-539 CNS) [µM] | TGI (A549 NSCLC) [µM] | TGI (UACC-62 melanoma) [µM] | TGI (HCT-15 colon) [µM] | TGI (DU-145 prostate) [µM] | TGI (MCF7 breast) [µM] | TGI (MDA-MB-435) [µM]
1 | O=c1[nH]c2cc([N+](=O)[O-])ccc2nc1/C(=N/Nc1ccccc1)C(O)c1ccco1 (stereo unspecified) | > 100 | > 100 | > 100 | > 100 | > 100 | > 100 | > 100 | > 100 | > 100 | > 100 | > 100 | > 100 | > 100 | > 100 | – | – | –
2 | O=C1CCC(=O)N1CNc1ccc2c(c1)S(=O)(=O)c1ccccc1O2 | > 100 | > 100 | > 100 | – | > 100 | > 100 | > 100 | > 100 | > 100 | > 100 | > 100 | > 100 | > 100 | > 100 | > 100 | > 100 | > 100
3 | COC(=O)c1cc(OS(=O)(=O)C(F)(F)F)c(=O)n2c1CCCC2 | > 100 | > 100 | > 100 | – | > 100 | > 100 | > 100 | > 100 | > 100 | > 100 | > 100 | > 100 | > 100 | > 100 | > 100 | > 100 | > 100
4 | CC(C)(C)C1CCC2c3c([nH]c4ncccc34)C3C(=O)N(c4ccccc4)C(=O)C3C2C1 (stereo unspecified) | > 100 | > 100 | > 100 | > 100 | > 100 | > 100 | > 100 | > 100 | > 100 | > 100 | > 100 | > 100 | > 100 | > 100 | – | – | –
5 | O=C(Cc1nc2sc3c(c2c(=O)[nH]1)CCCC3)Nc1ccccc1 | > 100 | 69.9 | > 100 | > 100 | > 100 | > 100 | > 100 | > 100 | > 100 | > 100 | > 100 | > 100 | > 100 | > 100 | – | – | –
6 | N#C/C(c1nc2ccccc2[nH]1)=c1\s/c(=C(/N)O)c(=N)n1-c1ccccc1 | > 100 | – | > 100 | – | > 100 | – | > 100 | > 100 | > 100 | > 100 | > 100 | > 100 | > 100 | > 100 | – | – | –
7 | COC(=O)C1CCC(=O)N1CN(C(C)=O)c1cc(OC)ccc1OC (stereo unspecified) | > 100 | > 100 | – | – | > 100 | > 100 | > 100 | > 100 | > 100 | > 100 | > 100 | > 100 | > 100 | > 100 | > 100 | > 100 | > 100
8 | Cn1c2c(c3ccccc31)CCN=C2C1CCCOC1=O (stereo unspecified) | > 100 | > 100 | – | > 100 | – | > 100 | > 100 | > 100 | – | > 100 | > 100 | > 100 | > 100 | > 100 | > 100 | > 100 | > 100
9 | CC(=O)OC1OC(c2ccoc2)C[C@@]12C1CCC3O[C@]3(C)[C@]1(C)[C@H](OC(C)=O)[C@H](OC(C)=O)[C@H]2C (stereo partly specified) | > 37.5 | > 37.5 | > 37.5 | > 37.5 | > 37.5 | > 37.5 | > 37.5 | > 37.5 | > 37.5 | > 37.5 | > 37.5 | > 37.5 | > 37.5 | > 37.5 | – | > 37.5 | –
10 | COc1ccc2c3c([nH]c(=O)c2c1C(=O)O)-c1ccccc1CC3 | > 100 | > 100 | > 100 | > 100 | > 100 | > 100 | > 100 | > 100 | > 100 | > 100 | > 100 | > 100 | – | > 100 | – | – | –
11 | N#Cc1ccc(/C=C(/C(=O)c2ccccc2)c2ccccc2)cc1 | 7.31 | 39.9 | > 29.1 | 30.6 | 10.4 | 10.1 | 50.1 | 42.9 | 35.2 | 26.8 | 42 | 44.2 | 31.2 | 30.4 | – | – | –
12 | O=C(O)Cc1ccc(Nc2nc3ccccc3nc2C(=O)O)cc1 | > 100 | > 100 | > 100 | – | > 100 | > 100 | > 100 | > 100 | > 100 | > 100 | > 100 | > 100 | > 100 | > 100 | > 100 | > 100 | > 100
13 | COc1cc2c(oc(=O)c3c4occc4cc(OC)c23)c2cccc(OCc3ccccc3)c12 | > 100 | > 100 | > 100 | > 100 | > 100 | > 100 | > 100 | > 100 | > 100 | > 100 | > 100 | > 100 | > 100 | > 100 | – | – | –
14 | O=C(O)[C@@H]1OCCOCCO[C@@H](C(=O)O)[C@H](C(=O)O)OCCOCCO[C@H]1C(=O)O | > 90.1 | > 24.9 | > 73.6 | > 100 | > 100 | > 100 | > 100 | > 100 | > 100 | > 100 | > 100 | > 100 | > 100 | > 100 | – | – | –
15 | O=[N+]([O-])C1=Cc2cc(Cl)ccc2OC1c1cccc2ccccc12 (stereo unspecified) | 0.459 | 1.46 | – | 2.25 | 0.817 | 3.5 | 3.04 | 2.81 | 6.19 | 2.64 | – | 3.85 | 4.97 | 2.95 | 4.7 | 2.16 | 5.35
16 | O=c1[nH]nc(-c2ccccc2)n1/N=C/c1ccco1 | > 100 | > 100 | > 100 | – | > 100 | > 100 | > 100 | > 100 | > 100 | > 100 | > 100 | > 100 | > 100 | > 100 | > 100 | > 100 | > 100
17 | COc1cc2oc(=O)cc(C)c2c(OC)c1O | > 100 | – | > 100 | – | > 100 | > 100 | > 100 | > 100 | > 100 | > 100 | > 100 | > 100 | > 100 | > 100 | > 100 | > 100 | > 100
18 | CCOc1ccccc1NC(=O)C(=O)C(/C(=N/N)C(=O)OC)c1nc2ccc([N+](=O)[O-])cc2[nH]c1=O (stereo unspecified) | > 100 | > 100 | > 100 | > 100 | > 100 | > 100 | – | > 100 | > 100 | > 100 | > 100 | > 100 | > 100 | > 100 | – | > 100 | > 100
19 | O=C(c1ccco1)N(C(=S)N1CCN(c2ccccc2)CC1)C1CCCCC1 | > 100 | > 100 | > 100 | – | > 100 | > 100 | > 100 | – | > 100 | > 100 | > 100 | > 100 | > 100 | > 100 | – | – | –
20 | CSc1nc(Nc2ccccc2Cl)c2c(N)nn(C)c2n1 | > 100 | > 100 | > 100 | > 100 | > 100 | > 100 | > 100 | > 100 | > 100 | > 100 | – | > 100 | > 100 | > 100 | > 100 | – | > 100
21 | O=C1CNC(=O)/C(=C/c2c[nH]c3ccccc23)N1 | > 100 | > 100 | – | > 100 | > 100 | > 100 | > 100 | > 100 | > 100 | > 100 | – | > 100 | > 100 | > 100 | > 100 | > 100 | > 100
22 | S=C=Nc1ccc(CSc2nc3ccccc3[nH]2)cc1 | 31.4 | 33.5 | 80.4 | 32.1 | 55.1 | 31.7 | 86.1 | 40.4 | 32.3 | 29.4 | 33.4 | 31 | 29.4 | 28.4 | 29.6 | – | 33.9
23 | C[C@@H]1[C@H](O)CC2=C(CC[C@@H](O)C2(C)C)[C@@]1(CO)CCc1ccoc1 | > 50 | > 50 | > 50 | > 50 | > 50 | > 50 | > 50 | > 50 | > 50 | > 50 | > 50 | > 50 | > 50 | > 50 | – | > 50 | –
24 | CCO/S(=N/S(=O)(=O)c1ccccc1)c1ccccc1[N+](=O)[O-] (stereo unspecified) | > 100 | – | > 100 | > 100 | > 100 | > 100 | > 100 | > 100 | > 100 | > 100 | > 100 | > 100 | > 100 | > 100 | – | – | –
25 | [N-]=[N+]=NC1(c2ccccc2)C(=O)C(Cl)=C(c2ccccc2)N(c2ccccc2)C1=O (stereo unspecified) | > 100 | – | > 100 | > 100 | > 100 | > 100 | > 100 | > 100 | > 100 | > 100 | > 100 | > 100 | > 100 | > 100 | – | – | –
26 | CCOC(=O)C(C)Sc1nnc(COc2ccc(Cl)cc2)n1-c1ccccc1 (stereo unspecified) | 27.2 | 41.7 | 34 | 49 | – | 41.9 | 40.1 | 83.5 | 85.4 | 35.8 | 36.9 | > 100 | 31.8 | 27.8 | – | – | –
27 | O=C(c1cccc2ccccc12)C1S(=O)(=O)OCCOS1(=O)=O | – | – | > 100 | > 100 | > 100 | > 100 | > 100 | > 100 | 0.0412 | > 100 | – | > 100 | – | > 100 | > 100 | > 100 | –
28 | COC(=O)[C@H](Cc1ccccc1)NC(=O)N(CCC#N)CCCCN(CCC#N)C(=O)N[C@@H](Cc1ccccc1)C(=O)OC | > 100 | > 100 | – | > 100 | > 100 | > 100 | > 100 | > 100 | > 100 | > 100 | – | > 100 | > 100 | > 100 | > 100 | > 100 | > 100
29 | O=C1c2c(Br)sc(Br)c2[C@@H](Cl)[C@H]1Cl | > 100 | 30.7 | 35.9 | – | > 100 | 65.4 | 38.5 | 46.6 | 40.7 | 31.1 | 27.1 | 79.7 | 34.6 | 71.3 | 35.9 | 53.5 | 43.8
30 | CCOC(=O)/C(=C\NC(C)(C)C)c1nc2ccccc2[nH]1 | 93 | 59.6 | 39.5 | – | – | 44.1 | > 100 | 34.5 | 41.2 | 25.5 | 39.4 | > 100 | 30.1 | > 100 | > 100 | 43.5 | 38.6
